According to paper PMC11481179, “Development and Application of Reversible and Irreversible Covalent Probes for Human and Mouse Cathepsin‐K Activity Detection, Revealing Nuclear Activity” (Advanced Science, 2024):

Target: T1, CTSK in U2-OS cells (Homo sapiens, UniProt P43235)
T1 construct: ability to label endogenous CTSK activity in intact cells; endogenous in cells; host or cells: U-2 OS
T1 sequence (P43235 115-329): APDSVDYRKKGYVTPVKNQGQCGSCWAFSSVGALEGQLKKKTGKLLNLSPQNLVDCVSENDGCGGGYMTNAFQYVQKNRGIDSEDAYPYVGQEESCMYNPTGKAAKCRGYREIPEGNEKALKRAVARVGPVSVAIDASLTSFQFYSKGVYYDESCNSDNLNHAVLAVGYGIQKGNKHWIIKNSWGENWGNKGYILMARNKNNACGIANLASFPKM
Test: Colocalization of ABP with anti-CTSK antibody, confocal microscopy
Assay type: cell-based
Settings: fixed U2-OS cells
Procedure: The probes were then evaluated for their ability to detect active CTSK by fluorescent microscopy. ABPs were incubated with intact U‐2 OS cells, after preincubation with vehicle, a pan cathepsin inhibitor (GB111‐NH2 ),^[ [47] ^] or our selective CTSK inhibitor GD30. Cells were then fixed and imaged by confocal fluorescent microscopy, (Figure 3a). The irreversible GD32 detected active CTSK and was inhibited by both inhibitors, indicating probe specificity. […] However, when live cell imaging was performed without fixation, active CTSK was detected by GD42 although barely, reflecting the probe affinity together with the low level of active CTSK in this cell line (Figure 3b). In order to determine the specificity of GD32’s fluorescence signaling, U2‐OS cells were treated with the probe. […] Additionally, the increased extent of the antibody signal may be attributed to its interaction with the pro‐CTSK, or CTSK that is bound to an endogenous inhibitor, which should not be detected by GD32 since they are not active. Figure 3 CTSK activity detected in intact cells. a) Cultures of U2‐OS cells were grown in 8‐well chambers. […] Red, probe fluorescence, blue, DAPI. page 14: Evaluation of the permeability of GD30, and ODN to intact cells, competition assay: MG63, U87-MG, A549, and U-2 OS cells (5x10^5 cells/well) were seeded in a six-well plate one day before treatment. […]

overlap coefficiency of probe signal (Cy5) with CTSK antibody (Cy3): 0.892
Compound: C#CCNC(=O)[C@H](CC(C)C)N[C@@H](c1ccc(-c2ccc(S(=O)(=O)CCNC(=O)CCCCC[N+]3=C(/C=C/C=C/C=C4/N(C)c5ccc(S(=O)(=O)O)cc5C4(C)C)C(C)(C)c4cc(S(=O)(=O)O)ccc43)cc2)cc1)C(F)(F)F [GD32]
